This is an account of results in patent US8426447B2, “Spiro-tricyclic ring compounds as beta-secretase modulators and methods of use” (Amgen Inc., priority 2008, dated 2013).

Assay [1] has as its target T1, BACE1 (Homo sapiens, UniProt P56817). In words: In Vitro Enzymatic BACE FRET (Fluorescence Resonance Energy Transfer) Assay. Type of assay: biochemical. The method, boiled down:
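Cleavage of a 50 nM internally quenched peptide substrate is followed by fluorescence after a one-hour reaction in acidic acetate buffer, pH 4.2, terminated by Tris.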

Assay [2] deals with T1, BACE1. Briefly: In Vitro BACE Cell-based Assay (HEK cell assay): Aβ40 in conditioned medium of cells stably expressing Amyloid Precursor Protein, sandwich ELISA. The procedure, abridged:
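Read-out is time-resolved fluorescence of Aβ40 in supernatant, captured by pAb40 and detected with biotinylated 6E10 plus Streptavidin-Europium. Cells stably expressing APP received compounds for 24 h over 10 concentrations starting at 100 μM or 10 μM, final DMSO 0.1%.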
(In an ELISA, binding on a coated surface is turned into a signal by an enzyme label.)

The mark [3] stands for this setting: Table IV, class symbols, read-out: BACE1 FRET assay.
Setting [4] is: Table IV, class symbols, read-out: HEK cell assay.
Setting [5] is: Table II, read-out: BACE1 FRET assay.
Where [6] appears, read: Table II, Aβ40, 24 h incubation, read-out: HEK cell assay.
The mark [7] stands for this setting: HEK cells, read-out: HEK cell assay.
[8] abbreviates: in vitro BACE FRET enzyme assay, IC50 class symbols, read-out: BACE1 FRET assay.
The mark [9] stands for this setting: HEK cell-based assay, Aβ40 in conditioned medium, IC50 class symbols, read-out: HEK cell assay.
[10] abbreviates: Table III, IC50's in uM ranges, read-out: BACE1 FRET assay.
[11] abbreviates: Table III, IC50's in uM ranges, read-out: HEK cell assay.

SMILES strings stand for the structures. pIC50: −log10 of the molar value. Where only a bound is given, the exact number is not on record here.

T1 sequence (P56817 46-501, species assumed): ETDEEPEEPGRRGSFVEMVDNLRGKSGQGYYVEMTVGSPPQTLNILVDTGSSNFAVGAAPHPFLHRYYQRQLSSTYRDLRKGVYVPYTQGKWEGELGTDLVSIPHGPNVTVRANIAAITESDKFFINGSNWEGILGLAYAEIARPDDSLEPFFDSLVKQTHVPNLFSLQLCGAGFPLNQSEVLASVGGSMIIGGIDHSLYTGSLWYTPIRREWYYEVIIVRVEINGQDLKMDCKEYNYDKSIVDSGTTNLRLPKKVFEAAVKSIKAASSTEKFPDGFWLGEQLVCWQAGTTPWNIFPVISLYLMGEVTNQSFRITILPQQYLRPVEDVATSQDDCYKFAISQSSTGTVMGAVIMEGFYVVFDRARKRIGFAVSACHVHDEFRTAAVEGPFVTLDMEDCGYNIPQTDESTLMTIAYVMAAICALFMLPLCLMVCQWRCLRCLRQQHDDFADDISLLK

For `CN(C)c1ncc(-c2ccc3c(c2)[C@]2(COC(N)=N2)c2cc(OCC(C)(C)C)ccc2O3)cn1` [compound 780], the pIC50 on BACE1 [1] (read-out: BACE1 FRET assay) is 6.00 to 7.00; on BACE1 [2] (read-out: HEK cell assay), 5.30 to 6.00.

`CC(=O)/C=C/c1ccc2c(c1)[C@]1(COC(N)=N1)c1cc(-c3cncnc3)ccc1O2` [compound 857]: the pIC50 at BACE1 [1] (setting [3]) was above 7.00; on BACE1 [2] (setting [4]) it was 6.00 to 7.00.

As for `COc1ccc2c(c1)[C@]1(COC(N)=N1)c1cc(NC(=O)[C@H](C)OC)ccc1O2` [compound 535], the pIC50 at BACE1 [1] (setting [3]) and on BACE1 [2] (setting [4]) was 5.30 to 6.00 throughout.

For the molecule `Cn1cnc(-c2ccc3c(c2)[C@]2(COC(N)=N2)c2cc(-c4cccnc4)ccc2O3)c1` [compound 554], the results for the pIC50 on BACE1 [1] (setting [3]) and on BACE1 [2] (setting [4]) were 6.00 to 7.00 and above 7.00, respectively.

For the molecule `NC1=N[C@@]2(CO1)c1cc(-c3cncnc3)ccc1Oc1ccc(-c3cccc(OC(F)(F)F)c3)cc12` [compound 839], the pIC50 at BACE1 [1] (setting [3]) was above 7.00; on BACE1 [2] (setting [4]), 5.30 to 6.00.

Turning to `CCCc1ccc2c(c1)[C@@]1(COC(N)=N1)c1cc(-c3cncnc3)ccc1O2` [Example 53, (4S)-2′-propyl-7′-(5-pyrimidinyl)spiro[1,3-oxazole-4,9′-xanthen]-2-amine], the pIC50 is above 7.00 on BACE1 [1] (setting [5]) and 6.00 to 7.00 on BACE1 [2] (setting [6]).

On to `NC1=N[C@@]2(CO1)c1cc(-c3cccnc3F)ccc1Oc1cnc(-c3ccccn3)cc12` [compound 516], for which the IC50 at BACE1 [1] (BACE1 FRET assay (uM)) was below 0.1 µM; at BACE1 [2] (HEK cell assay (uM), HEK cells), below 0.1 µM.

As to `CC(C)(C)COc1ccc2c(c1)[C@]1(COC(N)=N1)c1cc(C#CC3CC3)ccc1O2` [Example 40, (4S)-2′-(cyclopropylethynyl)-7′-(2,2-dimethylpropoxy)spiro[1,3-oxazole-4,9′-xanthen]-2-amine], the pIC50 was above 7.00 at BACE1 [1] (setting [5]) and 6.00 to 7.00 at BACE1 [2] (setting [6]).

`CC1(C)CC(c2cc3c(cn2)Oc2ccc(-c4cccnc4)cc2[C@@]32COC(N)=N2)=CCO1` [compound 436]: the pIC50 at BACE1 [1] (read-out: BACE1 FRET assay) and on BACE1 [2] (setting [7]) was above 7.00 each time.

Consider `COc1ccc2c(c1)[C@@]1(COC(N)=N1)c1cc(C3=CCOCC3)cc(F)c1O2` [compound 364], for which the pIC50 at BACE1 [1] (setting [8]) was 6.00 to 7.00; at BACE1 [2] (setting [9]) it was 5.30 to 6.00.

As to `COc1ccc2c(c1)[C@@]1(COC(N)=N1)c1cc(-c3cncnc3)cnc1O2` [compound 669], the pIC50 at BACE1 [1] (read-out: BACE1 FRET assay) and on BACE1 [2] (read-out: HEK cell assay) was 5.30 to 6.00 in each case.

Regarding `CC(C)(O)C#Cc1ccc2c(c1)[C@]1(COC(N)=N1)c1cc(-c3cccnc3)ccc1O2` [151a], the IC50 at BACE1 [1] (setting [10]) and at BACE1 [2] (setting [11]) was below 0.1 µM in each case.

Regarding `NC1=N[C@@]2(CO1)c1cc(Br)ccc1Oc1c(F)cccc12` [compound 558], the pIC50 on BACE1 [1] (setting [3]) is 5.30 to 6.00; on BACE1 [2] (setting [4]), below 5.30.

As for `COc1ccc2c(c1)[C@]1(COC(N)=N1)c1cc(-c3cncnc3)cc(F)c1O2` [152a], the IC50 on BACE1 [1] (setting [10]) is 0.1 to 1 µM; at BACE1 [2] (setting [11]) it was 1 to 5 µM.

`COC(C)(C)C#Cc1cnc2c(c1)[C@]1(COC(N)=N1)c1cc(-c3ccnc(F)c3)ccc1O2` [compound 687]: the pIC50 at BACE1 [1] (read-out: BACE1 FRET assay) is 5.30 to 6.00; on BACE1 [2] (read-out: HEK cell assay), below 5.30.

`NC1=N[C@]2(CO1)c1ccccc1Oc1ccc(-c3cccc4ncccc34)cc12` [compound 627]: the pIC50 on BACE1 [1] (setting [3]) and at BACE1 [2] (setting [4]) was below 5.30 each time.

Turning to `CC1(COc2cc3c(cc2F)Oc2ccc(-c4cncnc4)cc2[C@@]32COC(N)=N2)COC1` [compound 712], the pIC50 on BACE1 [1] (read-out: BACE1 FRET assay) and at BACE1 [2] (read-out: HEK cell assay) was above 7.00 in each case.

For `NC1=N[C@]2(CO1)c1cc(-c3cc4ccccc4s3)ccc1Oc1ncccc12` [compound 618], the pIC50 at BACE1 [1] (setting [3]) was below 5.30; at BACE1 [2] (setting [4]) it was 5.30 to 6.00.

Regarding `CC1(COc2cnc3c(c2)[C@]2(COC(N)=N2)c2cc(-c4c(F)cccc4F)ccc2O3)COC1` [compound 411], the pIC50 on BACE1 [1] (setting [8]) and on BACE1 [2] (setting [9]) was above 7.00 throughout.

On to `NC1=N[C@]2(CO1)c1ccccc1Oc1cc(F)c(-c3cccnc3)cc12` [compound 569], for which the pIC50 at BACE1 [1] (setting [3]) and at BACE1 [2] (setting [4]) was 6.00 to 7.00 throughout.

On to `NC1=N[C@@]2(CO1)c1cc(-c3cccnc3)ccc1Oc1cnc(N3CCC3)cc12` [compound 447], for which the pIC50 on BACE1 [1] (read-out: BACE1 FRET assay) is above 7.00; at BACE1 [2] (setting [7]) it was 6.00 to 7.00.
